This note sets out measurements from US5262537A, “Derivatives of 4,5,6,7-tetrahydroimidazo-[4,5-c]pyridinyl-6-carboxylic acid” (priority 1993, dated 1993).

One assay has as its target T1, 5-HT3 (Rattus norvegicus, UniProt P35563).
T1 sequence (P35563 24-483): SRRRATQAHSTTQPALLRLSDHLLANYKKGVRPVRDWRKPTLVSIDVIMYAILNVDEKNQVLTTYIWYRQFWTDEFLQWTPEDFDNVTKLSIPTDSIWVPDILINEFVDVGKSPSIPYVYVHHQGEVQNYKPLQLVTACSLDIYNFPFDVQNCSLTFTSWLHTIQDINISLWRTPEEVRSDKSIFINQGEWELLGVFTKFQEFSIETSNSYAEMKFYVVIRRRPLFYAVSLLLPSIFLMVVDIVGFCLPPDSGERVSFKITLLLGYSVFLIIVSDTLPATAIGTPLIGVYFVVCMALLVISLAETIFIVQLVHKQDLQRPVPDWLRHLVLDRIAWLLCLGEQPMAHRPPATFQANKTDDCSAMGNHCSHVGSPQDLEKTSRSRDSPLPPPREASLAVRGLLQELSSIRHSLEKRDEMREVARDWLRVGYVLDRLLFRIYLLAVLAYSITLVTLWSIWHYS
Kind of assay: biochemical. The format is binding, Male Sprague-Dawley rats. As to the method:
A number of compounds in accordance with the present invention were tested for their 5-HT3 and D2 binding affinities in accord with the following procedures.
Male Sprague-Dawley rats (175-220 g) were sacrificed by decapitation and their brains removed rapidly. The entorhinal cortex was used for the 5-HT3 (5-hydroxytryptamine) binding assay and the remainder of the brain, minus the brain stem and cerebellum, was used for the D2 (dopamine) binding assay. The entorhinal cortex was harvested and prepared on the day of the assay.
The entorhinal cortex was homogenized in 20 volumes of cold 50 mM HEPES buffer, pH 7.4, while the remaining brain tissue was homogenized in 20 volumes of cold 50 mM Tris, pH 7.4. The homogenates were centrifuged at 4800×g for 15 minutes at 5° C. and the supernatants decanted. Pellets were resuspended in the original volume of HEPES or Tris. Homogenates were centrifuged and the supernatants decanted. Pellets were resuspended in the same volume of HEPES or Tris and incubated at 37° C. for 45 minutes to remove endogenous neurotransmitters. Homogenates were centrifuged and the supernatants were decanted. Pellets for D2 assays were stored at -50° C. until the day of the assay. The pellets for the 5-HT3 assay (entorhinal cortex) were resuspended in the appropriate amount of HEPES buffer and used promptly. Modifications of published assays for [^3 H]GR65630 (Kilpatrick et al., Nature: 330, 746-748 (1987)) and [^3 H]raclopride (Dewar et al., J. Pharmacol. Exp. Ther.: 250, 696-706 (1989) and Lidow et al., Proc. Natl. Acad. Sci. USA: 86, 6412-6416 (1989)) were used for the 5-HT3 and D2 binding assays, respectively.
Briefly, 0.25 ml of homogenate was incubated with either 0.2 nM of [^3 H]GR65630 or 1.0 nM of [^3 H]raclopride in a final volume of 0.5 ml. D2 binding also requires sodium chloride and potassium chloride (120 mM and 5 mM, final concentration, respectively). In the 5-HT3 assay, non-specific binding was defined in the presence of 100 uM quipazine. In the D2 assay, non-specific binding was defined in the presence of 100 uM of (+/-) sulpiride. Both assays were incubated at room temperature; [^3 H]GR65630 for 40 minutes and [^3 H]raclopride for 60 minutes. Test compounds (0.1 ml) were added to incubates where appropriate. Bound ligand was separated from free ligand by filtration and quantified using liquid scintillation spectrophotometry. IC50 values were calculate for all test compounds.

In the next assay the test system is Ferret. Kind of assay: Cisplatin Ferret Assay--Antiemetic Screening. The format is in vivo, Male ferrets. Particulars: Mustela putorius, iv, 4 h; for inhibition in vivo at 0.1 mg/kg: read-out: Ferret Cisplatin Test % Prot, 0.1 mg/Kg; for ED50: read-out: Ferret Cisplatin Test ED50.
Setting [1] is: 0.2 nM [3H]GR65630, rat entorhinal cortex, 40 minutes, room temperature, read-out: 5-HT3 IC50.
Where [2] appears, read: 0.1 mg/kg i.v., 30 minutes after cisplatin 10 mg/kg i.v., percent reduction of emetic episodes vs controls, four hours.
[3] abbreviates: i.v., 30 minutes after cisplatin 10 mg/kg i.v., emetic episodes over four hours.

One may read the IC50 as the point on the concentration scale where inhibition reaches its midpoint. For orientation: ED50 means the dose at which the effect has come halfway, by size or by number of responders.

Structures can show the parent of a compound that is named as a salt. Where two headings read alike, the source gives them in different places.

Experimental for Ferret: Male ferrets (castrated, descented, 1-2 kg) were purchased from Triple F Farms, Syre, Pa. Ferrets were housed four in a cage with a 12 hour light cycle and were fed ad libitum with Ralston Purina Cat Chow. Each ferret was used unfasted for the assay after a minimum of a 24 hour acclimation time in animal facility.
Ferret Preparation. Each ferret was anesthetized with 5% isoflurane-O2in a 20 gallon aquarium for 2 to 5 minutes. After removal of the anesthetic gas, the animals were removed and weighed. Injections were made into the dorsal front paw vein using a tourniquet and a 1 ml tuberculin syringe with a 25 g needle while the animal was maintained under anesthesia using a small nose cone delivering 5% isoflurane-O2. Cisplatin was injected using a 3 ml or 5 ml syringe in the opposite paw from the study compound or saline. Recovery time from anaesthesia was 5 to 8 minutes.
Drug Preparation. Cisplatin bulk powder was weighed and dissolved in normal saline at 75° C. to provide a 5 mg/ml solution (90 mg was placed in a scintillation vial and qs with 18 ml saline). The solution was stirred and maintained at 40° C. until ready for use. The study drug was weighed and dissolved in normal saline at room temperature to provide a 1 mg/ml solution (10 mg was placed in a scintillation vial and qs with 10 ml saline). Suspensions were heated to 40° C. to bring the study compound into solution. Compounds not soluble under these conditions were not assayed.
Assay. Cisplatin was injected i.v. at 10 mg/kg into twelve anesthetized ferrets daily at time zero. Normal saline (0.5 ml) or the study compound (0.1 or 1.0 mg/kg) was injected 30 minutes later in groups of three anesthetized ferrets. Order of treatment and treatment dose was selected at random, with the remaining treatment dose assayed in the next experiment.
Experimental Observations and Data Collection. Ferrets were viewed individually. The time and number of emetic episodes were recorded for four hours. Zero time was equivalent to the time of cisplatin injection. […] Retches were recorded but not counted. The total number of episodes for each of the four groups of three ferrets (+/-S.E.) was averaged and the effect of treatment (% protection) was calculated as the percent reduction of emetic episodes compared to controls. [formula]
Percent protection values were determined from experimental controls. Experimental controls were those obtained from the day of the experiment. Onset times of the first episode were averaged and recorded for each group. Prodromal signs (lip licking, slit eyes, head shaking, salivation, scratching, clawing, walking backward, sedation, urination, and defecation) were also averaged and recorded.

Regarding `CN1Cc2nc[nH]c2C[C@H]1C(=O)Nc1cccc(F)c1F` [Compd 31], on 5-HT3 (setting [1]), the IC50 turned out to be 644 nM. For the same compound, in the assay on Ferret (setting [2]), the inhibition in vivo at 0.1 mg/kg was 91%. For the same compound, in the assay on Ferret (setting [3]), the ED50 was found to be 0.068 mg/kg.

For `CN1Cc2nc[nH]c2C[C@H]1C(=O)c1cc2ccccc2s1` [Compd 32, 6-(2-benzo[b]thiophenylcarbonyl)-5-methyl-4,5,6,7-tetrahydroimidazo[4,5-c]pyridine], the IC50 at 5-HT3 (setting [1]) was determined as 234 nM. Also, in the assay with Ferret, the inhibition in vivo at 0.1 mg/kg was found to be 41% and the ED50 was 0.11 mg/kg.

Regarding `CN1Cc2nc[nH]c2C[C@H]1C(=O)c1cc2ccccc2o1` [Compd 33, 6-(2-benzo[b]furanylcarbonyl)-5-methyl-4,5,6,7-tetrahydroimidazo[4,5-c]pyridine], the IC50 at 5-HT3 (setting [1]) worked out at 2020 nM. Moreover, in the assay on Ferret, the inhibition in vivo at 0.1 mg/kg stood at 31% and the ED50 was determined as 0.43 mg/kg.

For the compound `CN1Cc2nc[nH]c2C[C@H]1C(=O)Nc1c(F)cccc1F` [Compd 34], at 5-HT3 (setting [1]), the IC50 was 612 nM. Also, the inhibition in vivo at 0.1 mg/kg in the assay on Ferret (setting [2]) is 59%. Also, the ED50 in the assay with Ferret (setting [3]) came to 0.15 mg/kg.

As for `CN1Cc2nc[nH]c2C[C@H]1C(=O)Nc1ccc(F)c(F)c1F` [Compd 35], on 5-HT3 (setting [1]), the IC50 amounted to 160 nM. For the same compound, the inhibition in vivo at 0.1 mg/kg with Ferret (setting [2]) was found to be 20%. Moreover, in the assay with Ferret (setting [3]), the ED50 turned out to be 0.19 mg/kg.

For the compound `CN1Cc2nc[nH]c2C[C@H]1C(=O)Nc1cccc2c1NCCC2` [Compd 36], the IC50 on 5-HT3 (setting [1]) worked out at 103 nM. For the same compound, in the assay on Ferret (setting [2]), the inhibition in vivo at 0.1 mg/kg stood at 70%. Besides, the ED50 with Ferret (setting [3]) is 0.081 mg/kg.

For the compound `CN1Cc2nc[nH]c2C[C@H]1C(=O)Nc1ccccc1Cl` [Compd 37], at 5-HT3 (setting [1]), the IC50 is 26.7 nM. For the same compound, the inhibition in vivo at 0.1 mg/kg in the assay on Ferret (setting [2]) was 42%. Moreover, in the assay with Ferret (setting [3]), the ED50 was determined as 0.065 mg/kg.

As for `CN1Cc2nc[nH]c2C[C@H]1C(=O)c1ccccc1` [Compd 38], the IC50 against 5-HT3 was 48.4 nM. In the assay with Ferret, the inhibition in vivo at 0.1 mg/kg was found to be 30%.

For the compound `CC(=O)c1ccccc1NC(=O)[C@@H]1Cc2[nH]cnc2CN1C` [Compd 39, (S)-6-(2-acetylphenylaminocarbonyl)-5-methyl-4,5,6,7-tetrahydroimidazo[4,5-c]pyridine], the IC50 at 5-HT3 (setting [1]) is 4.18 nM. Besides, in the assay on Ferret (setting [2]), the inhibition in vivo at 0.1 mg/kg turned out to be 65%. The ED50 in the assay on Ferret (setting [3]) was 0.045 mg/kg.

On to `CN1Cc2nc[nH]c2C[C@H]1C(=O)Nc1cc(O)ccc1O` [Compd 40, (S)-6-(2,5-dihydroxyphenylaminocarbonyl)-5-methyl-4,5,6,7-tetrahydroimidazo[4,5-c]pyridine dihydrobromide], for which, at 5-HT3 (setting [1]), the IC50 was 45.9 nM. In the assay with Ferret (setting [2]), the inhibition in vivo at 0.1 mg/kg came out at 0%.

Take `COc1ccc2oc(C(=O)[C@@H]3Cc4[nH]cnc4CN3C)cc2c1` [Compd 41]: the 50% inhibitory concentration (IC50) at 5-HT3 (setting [1]) came out at 12900 nM. For the same compound, in the assay on Ferret, the inhibition in vivo at 0.1 mg/kg amounted to 9%.

Consider `CN1Cc2nc[nH]c2C[C@H]1C(=O)Nc1ccccc1N` [Compd 42], for which, at 5-HT3 (setting [1]), the IC50 was found to be 3490 nM. In addition, the inhibition in vivo at 0.1 mg/kg in the assay on Ferret (setting [2]) amounted to 39%. In the assay with Ferret (setting [3]), the ED50 worked out at 0.23 mg/kg.

In the case of `COc1ccccc1C(=O)[C@@H]1Cc2[nH]cnc2CN1C` [Compd 43], at 5-HT3, inhibition was half-maximal at 2380 nM (IC50). The inhibition in vivo at 0.1 mg/kg in the assay with Ferret is 41%.

As to `CN1Cc2nc[nH]c2C[C@H]1C(=O)Nc1ccccc1Oc1cccc(C(F)(F)F)c1` [Compd 44], at 5-HT3 (setting [1]), the IC50 was determined as 9.52 nM. Further, the inhibition in vivo at 0.1 mg/kg with Ferret (setting [2]) came to 1%. Besides, the ED50 with Ferret (setting [3]) turned out to be 0.26 mg/kg.

`CN1Cc2nc[nH]c2C[C@H]1C(=O)Nc1ccccc1Oc1cccc(F)c1` [Compd 45]: the IC50 at 5-HT3 (setting [1]) amounted to 7.09 nM. For the same compound, the inhibition in vivo at 0.1 mg/kg in the assay on Ferret (setting [2]) was determined as 67%. The ED50 in the assay on Ferret (setting [3]) amounted to 0.042 mg/kg.

Turning to `CC(=O)c1ccccc1NC(=O)[C@@H]1Cc2[nH]cnc2C(C)(C)N1` [Compd 48], on 5-HT3 (setting [1]), the IC50 was 158 nM. Also, the inhibition in vivo at 0.1 mg/kg in the assay on Ferret (setting [2]) was determined as 100%. The ED50 with Ferret (setting [3]) is 0.0098 mg/kg.

Consider `CC1(C)N[C@H](C(=O)Nc2ccccc2Oc2ccccc2)Cc2[nH]cnc21` [Compd 49, (S)-6-(2-phenoxy-phenylaminocarbonyl)-4,4-dimethyl-4,5,6,7-tetrahydroimidazo[4,5-c]pyridine], for which the IC50 at 5-HT3 (setting [1]) amounted to 8.55 nM. Besides, the inhibition in vivo at 0.1 mg/kg with Ferret (setting [2]) came out at 76%. The median effective dose (ED50) with Ferret (setting [3]) worked out at 0.022 mg/kg.

Compound `CCN(CC)CCNC(=O)c1cc(Cl)c(N)cc1OC` [Metaclopramide, reference compound] yielded an IC50 against 5-HT3 of 514 nM. For the same compound, the inhibition in vivo at 0.1 mg/kg in the assay on Ferret (setting [2]) came out at 17%. Besides, in the assay with Ferret (setting [3]), the median effective dose (ED50) turned out to be 4.08 mg/kg.
